{"source": "patent US6599860B1", "about": "“Herbicidal halogenalkyl-substituted 3-(4,5-dihydroisoxazol-3-yl)-benzoyl-cyclohexenones” (BASF Aktiengesellschaft, priority 1999, dated 2003)", "data": [{"smiles": "Cc1c(C(=O)C2C(=O)C3CCC(C3)C2=O)ccc(S(C)(=O)=O)c1C1=NOC(CCl)C1", "note": "(stereo not shown) [Compound 2.2, 3-[2-Methyl-3-(5-chloromethyl-4,5-dihydroisoxazol-3-yl)-4-methyl-sulfonylbenzoyl]bicyclo[3.2.1]octane-2,4-dione]", "values": [{"measurement": "melting point", "value": "98 to 103", "unit": "°C"}]}]}
